Here are results for 9 molecules from patent publication US8420659B2, “Compositions and methods for inhibition of the JAK pathway” (Rigel Pharmaceuticals, Inc., priority 2008, dated 2013).

This assay deals with Human primary T-cells. Briefly: Cell Titer-Glo, Human primary T Cell, IL2 (proliferation). Format: cell-based. The settings on record: IL-2 stimulated primary T-cell proliferation, 72 hours at 37° C., Cell Titer-Glo luminescence. From the text:
The activity of the compounds described herein can further be characterized by assaying the effect of the 2,4-pyrimidinediamine compounds described herein on the proliferative response of primary human T-cells. In this assay, primary human. T-cells derived from peripheral blood and pre-activated through stimulation of the T-cell receptor and CD28, proliferate in culture in response to the cytokine Interleukin-2 (IL-2). This proliferative response is dependent on the activation of JAK1 and JAK3 tyrosine kinases, which phosphorylate and activate the transcription factor Stat-5. The primary human T-cells are incubated with the 2,4-pyrimidinediamine compounds in the presence of IL-2 for 72 hours, and at the assay endpoint intracellular ATP concentrations are measured to assess cell viability. A reduction in cell proliferation compared to control conditions is indicative of inhibition of the JAK kinase pathway.
Cell Titer-Glo, Human primary T Cell, IL2
Materials and Reagents: Dimethyl Sulfoxide (DMSO) (Sigma-Aldrich, Cat# D2650) was used as a control. The following reagents were used: Ficoll Hypaque (Amersham Pharmacia, Cat#17-1440-03), Anti-Human CD3 (BD Pharmingen, Cat#555336), Anti-Human CD28 (Immunotech, Cat# IM1376), Yssel's Media (Gemini Bio-products, Cat#400-103), RPMI 1640 (Cellgro, Cat#10-040-CM), Fetal Bovine Serum (JRH, Cat#12106-500M), and […] (R& D Systems, Cat#202-IL).
Human primary T-cells were isolated and cultured according to the following procedure. Whole blood was obtained from a healthy volunteer, mixed 1:1 with PBS, layered on to Ficoll Hypaque in 2:1 blood/PBS:ficoll ratio and centrifuged for 30 min at 4° C. at 1750 rpm. The lymphocytes at the serum: ficoll interface were recovered and washed twice with 5 volumes of PBS. The cells were resuspended in Yssel's medium containing 40 U/mL IL-2 and seeded into a flask pre-coated with […] anti-CD3 and […] anti-CD28. The primary T-cells were stimulated for 3-4 days, then transferred to a fresh flask and maintained in RPMI with 10% FBS and 40 U/mL IL-2.
Primary T-cells were starved of IL-2 overnight and resuspended in Yssel's medium at 2×10^6 cells/mL. 50 μL of cell suspension containing 80 U/mL IL-2 was added to each well of a flat bottom 96 well black plate. For the unstimulated control, IL-2 was omitted from the last column on the plate. Compound was serially diluted in DMSO from 5 mM in 3-fold dilutions, and then diluted 1:250 in Yssel's medium. 50 μL of 2× compound was added per well in duplicate and the cells were allowed to proliferate for 72 hours at 37° C.
Proliferation was measured using Cell Titer-Glo. The substrate was thawed and allowed to come to room temperature. After mixing the Cell Titer-Glo reagent and diluent together, 100 μL was added to each well. The plates were mixed on an orbital shaker for two minutes to induce lysis and incubated at room temperature for an additional ten minutes to allow the signal to equilibrate. The Luminescence was read on the Wallac Plate Reader (Wallac Victor2 1420 Multilabel Counter).
On the technique in general: In ATP-based viability assays light output follows the ATP content of the culture.
Usually IC50 stands for the point on the concentration scale where inhibition reaches its midpoint. As to `CCNS(=O)(=O)NCc1ccc(Nc2nc(Nc3cccc(S(N)(=O)=O)c3)ncc2Cl)cc1` [Compound I-5, N2-(3-Aminosulfonylphenyl)-5-chloro-N4-[4-[(N-ethylsulfamoylamino)methyl]phenyl]-2,4-pyrimidinediamine], the 50% inhibitory concentration (IC50) was less than 500 nM.

For `NS(=O)(=O)c1ccc(Nc2ncc(Cl)c(Nc3ccc(CNS(=O)(=O)NC4CC4)cc3)n2)cc1` [Compound I-19, N2-(4-Aminosulfonylphenyl)-5-chloro-N4-[4-[(N-cyclopropylsulfamoylamino)methyl]phenyl]-2,4-pyrimidinediamine], the 50% inhibitory concentration (IC50) was less than 500 nM.

`CCNS(=O)(=O)NCc1cccc(Nc2nc(Nc3ccc(S(N)(=O)=O)cc3)ncc2Cl)c1` [Compound I-10, N2-(4-Aminosulfonylphenyl)-5-chloro-N4-[3-[(N-ethylsulfamoylamino)methyl]phenyl]-2,4-pyrimidinediamine]: the IC50 is less than 500 nM.

For the molecule `CCNS(=O)(=O)NCc1ccc(Nc2nc(Nc3ccc(S(N)(=O)=O)cc3)ncc2C)cc1` [Compound I-8, N2-(4-Aminosulfonylphenyl)-N4-[4-[(N-ethylsulfamoylamino)methyl]phenyl]-5-methyl-2,4-pyrimidinediamine], the half-inhibitory concentration (IC50) is less than 500 nM.

`CCNS(=O)(=O)NCc1cccc(Nc2nc(Nc3cccc(S(N)(=O)=O)c3)ncc2C)c1` [Compound I-11, N2-(3-Aminosulfonylphenyl)-N4-[3-[(N-ethylsulfamoylamino)methyl]phenyl]-5-methyl-2,4-pyrimidinediamine] registered an IC50 of less than 500 nM.

Molecule `CCNS(=O)(=O)NCc1cccc(Nc2nc(Nc3ccc(S(N)(=O)=O)cc3)ncc2C)c1` [Compound I-12, N2-(4-Aminosulfonylphenyl)-N4-[3-[(N-ethylsulfamoylamino)methyl]phenyl]-5-methyl-2,4-pyrimidinediamine] had an IC50 of less than 500 nM.

For `CCNS(=O)(=O)NCc1ccc(Nc2nc(Nc3cccc(S(N)(=O)=O)c3)ncc2Cl)c(C)c1` [Compound I-15, N2-(3-Aminosulfonylphenyl)-5-chloro-N4-[4-[(N-ethylsulfamoylamino)methyl]-2-methylphenyl]-2,4-pyrimidinediamine], the IC50 is less than 500 nM.

`CCNS(=O)(=O)NCc1cccc(Nc2nc(Nc3cccc(S(N)(=O)=O)c3)ncc2Cl)c1` [Compound I-9, N2-(3-Aminosulfonylphenyl)-5-chloro-N4-[3-[(N-ethylsulfamoylamino)methyl]phenyl]-2,4-pyrimidinediamine] displayed a 50% inhibitory concentration (IC50) of less than 500 nM.

On to `CCNS(=O)(=O)NCc1cccc(Nc2nc(Nc3cccc(S(N)(=O)=O)c3)ncc2F)c1` [Compound I-13, N2-(3-Aminosulfonylphenyl)-N4-[3-[(N-ethylsulfamoylamino)methyl]phenyl]-5-fluoro-2,4-pyrimidinediamine], for which the concentration for half-maximal inhibition (IC50) was less than 500 nM.
